The text below walks through data of ChEMBL document CHEMBL6078696, “Nanomolar activity of coumarin-3-thiosemicarbazones targeting Trypanosoma cruzi cruzain and the T. brucei cathepsin L-like protease” (Eur J Med Chem, 2025).

In data set [1] the test system is Trypanosoma brucei. Kind of data set: Antitrypanosomal activity against Trypanosoma brucei trypomastigotes assessed as parasite growth inhibition at 50 uM incubated for 72 hrs by resazurin dye based assay relative to control. It is filed as functional.
The target of data set [2] is Cruzipain (Trypanosoma cruzi) (UniProt P25779). Kind of data set: Inhibition of recombinant Trypanosoma cruzi CRZ using Z-Phe-Arg-aminomethylcoumarin as substrate at 50 uM preincubated for 10 mins followed by substrate addition by fluorimetry relative to control.
The subject of data set [3] is Trypanosoma brucei. Nature of the data set: Inhibition of recombinant Trypanosoma brucei CATL using Z-Phe-Arg-aminomethylcoumarin as substrate at 50 uM preincubated for 10 mins followed by substrate addition by fluorimetry relative to control.
Data set [4] has as its system Trypanosoma cruzi. Nature of the data set: Antitrypanosomal activity against intracellular Trypanosoma cruzi amastigotes infected in mouse C2C12 cells at 10 uM incubated for 48 hrs by DAPI staining based analysis relative to control. It is filed as functional.
Data set [5] in a line: Cytotoxicity against HEK293 cells at 50 uM incubated for 48 hrs by resazurin reduction assay relative to control. It counts as toxicity, cell-based. The conditions noted are these: human, read-out: INH. (The colour change of resazurin is a common sign of viable cells or microbes.)
A short description of data set [6]: Cytotoxicity against mouse C2C12 cells at 10 uM relative to control. It counts as toxicity, cell-based. The conditions noted are these: read-out: INH.
The nature of data set [7]: Cytotoxicity against HEK293 cells incubated for 48 hrs by resazurin reduction assay. It counts as toxicity, cell-based. The conditions noted are these: human.
The target in data set [8] is T1, Cruzipain (Trypanosoma cruzi, UniProt P25779). Kind of data set: Inhibition of recombinant Trypanosoma cruzi CRZ using Z-Phe-Arg-aminomethylcoumarin as substrate preincubated for 10 mins followed by substrate addition by fluorimetry.
The nature of data set [9]: Inhibition of recombinant Trypanosoma brucei CATL using Z-Phe-Arg-aminomethylcoumarin as substrate preincubated for 10 mins followed by substrate addition by fluorimetry.
For data set [10], the system named is Trypanosoma brucei. Kind of data set: Potency index, ratio of FN-27 IC50 to test compound IC50 recombinant Trypanosoma brucei CATL.
The target in data set [11] is Cruzipain (Trypanosoma cruzi) (UniProt P25779). Nature of the data set: Potency index, ratio of FN-27 IC50 to test compound IC50 recombinant Trypanosoma cruzi CRZ.
Data set [12] is described as follows: Selectivity index, ratio of CC50 for cytotoxicity against HEK293 cells to EC50 for Trypanosoma brucei trypomastigotes. It is filed as toxicity, cell-based. As to conditions: human, read-out: Ratio CC50/EC50.
Data set [13] concerns Trypanosoma brucei. Nature of the data set: Antitrypanosomal activity against Trypanosoma brucei trypomastigotes assessed as parasite growth inhibition incubated for 72 hrs by resazurin dye based assay. It counts as functional, organism-based.
Data set [14] in a line: Inhibition of Trypanosoma brucei CATL.
The test system of data set [15] is Trypanosoma cruzi. Kind of data set: Antitrypanosomal activity against Trypanosoma cruzi amastigotes infected in cell model. It counts as functional, organism-based.
The target in data set [16] is T1, Cruzipain. Kind of data set: Inhibition of Trypanosoma cruzi CRZ.

T1 sequence (P25779 whole entry): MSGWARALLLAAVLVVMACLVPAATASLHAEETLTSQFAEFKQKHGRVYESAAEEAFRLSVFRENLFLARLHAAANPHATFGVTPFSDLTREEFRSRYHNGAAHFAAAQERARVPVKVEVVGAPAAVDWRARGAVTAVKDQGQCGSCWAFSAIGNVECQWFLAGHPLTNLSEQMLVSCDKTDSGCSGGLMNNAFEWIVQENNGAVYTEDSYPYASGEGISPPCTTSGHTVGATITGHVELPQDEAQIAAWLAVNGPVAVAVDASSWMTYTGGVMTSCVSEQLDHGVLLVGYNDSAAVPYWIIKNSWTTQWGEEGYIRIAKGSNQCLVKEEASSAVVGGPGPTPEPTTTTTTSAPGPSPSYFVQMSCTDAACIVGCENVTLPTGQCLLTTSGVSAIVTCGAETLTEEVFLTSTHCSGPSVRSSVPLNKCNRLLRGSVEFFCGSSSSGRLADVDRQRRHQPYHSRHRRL
Sequence of Cruzipain (Trypanosoma cruzi) (P25779 123-467 limits assumed): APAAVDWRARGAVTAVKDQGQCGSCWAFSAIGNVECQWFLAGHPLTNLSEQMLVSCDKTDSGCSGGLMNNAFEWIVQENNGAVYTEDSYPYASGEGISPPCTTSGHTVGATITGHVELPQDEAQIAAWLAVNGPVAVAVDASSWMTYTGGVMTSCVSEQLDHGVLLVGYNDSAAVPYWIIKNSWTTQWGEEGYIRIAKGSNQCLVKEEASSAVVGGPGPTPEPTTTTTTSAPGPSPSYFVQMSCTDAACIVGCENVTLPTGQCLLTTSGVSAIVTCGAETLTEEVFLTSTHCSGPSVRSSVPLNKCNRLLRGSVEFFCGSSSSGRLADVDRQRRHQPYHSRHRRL

As for `N=C(N)c1ccc(OCCCCCOc2ccc(C(=N)N)cc2)cc1` [PENTAMIDINE], the inhibition at 50 µM with Trypanosoma brucei [1] was 100%.
Take `COc1cc(OC)c2cc(C(=O)NCCc3c[nH]c4ccccc34)c(=O)oc2c1`: the inhibition in data set [2] came out at 25%; with Trypanosoma brucei [3] it was 15%. The same compound displayed an inhibition at 10 µM with Trypanosoma cruzi [4] of 13%. Further, in data set [5], the cytotoxicity at 48 h, 50 µM came to 31%. Further, the cytotoxicity at 10 µM in [6] stood at 0%. Further, in the data set on Trypanosoma brucei [1], the inhibition at 50 µM was found to be 43%.
In the case of `COc1cc(OC)c2cc(C(=O)NCc3ccccc3)c(=O)oc2c1`, in the data set with Trypanosoma cruzi [4], the inhibition at 10 µM was determined as 17%. The cytotoxicity at 48 h, 50 µM in data set [5] amounted to 23%. In [6], the cytotoxicity at 10 µM was determined as 0%. The inhibition at 50 µM in the data set with Trypanosoma brucei [1] was 3%.
Turning to `O=C(NCCc1c[nH]c2ccccc12)c1cc2ccccc2oc1=O`, the inhibition in [2] is 10%; in the data set on Trypanosoma brucei [3], 25%. The compound also yielded an inhibition at 10 µM with Trypanosoma cruzi [4] of 24%. In addition, in data set [5], the cytotoxicity at 48 h, 50 µM stood at 76%. The same compound registered a CC50 at 48 h in [7] of 19.6 µM. For the same compound, the cytotoxicity at 10 µM in data set [6] is 16%. Further, the inhibition at 50 µM in the data set on Trypanosoma brucei [1] was determined as 63%.
For the compound `CCN(CC)c1ccc2cc(/C(C)=N/NC(N)=S)c(=O)oc2c1`, the inhibition in [2] stood at 30%; in the data set with Trypanosoma brucei [3], 77%. The inhibition at 10 µM in the data set on Trypanosoma cruzi [4] worked out at 44%. The cytotoxicity at 48 h, 50 µM in [5] is 80%. In addition, the midpoint of cytotoxicity in [7], the CC50 at 48 h, lay at 42.7 µM. Also, the IC50 on Cruzipain [8] came to 46 nM. For the same compound, the cytotoxicity at 10 µM in data set [6] amounted to 11%. The inhibition at 50 µM in the data set on Trypanosoma brucei [1] worked out at 56%.
`O=C(c1cc2cc(I)ccc2oc1=O)N1CCN(c2ccccc2)CC1`: the figures for the inhibition (in data set [2]; with Trypanosoma brucei [3]) were 2% and 19%, respectively. In addition, the inhibition at 10 µM in the data set with Trypanosoma cruzi [4] turned out to be 5%. Further, the cytotoxicity at 48 h, 50 µM in data set [5] amounted to 13%. In data set [6], the cytotoxicity at 10 µM came out at 0%. In addition, in the data set on Trypanosoma brucei [1], the inhibition at 50 µM was determined as 12%.
Consider `C/C(=N\NC(N)=S)c1cc2ccccc2oc1=O`, for which the inhibition in data set [2] amounted to 97%; with Trypanosoma brucei [3], 88%. Also, in the data set on Trypanosoma cruzi [4], 10 µM produced 49% inhibition. Besides, in data set [5], the cytotoxicity at 48 h, 50 µM is 11%. Besides, the IC50 came to 68 nM at Cruzipain [8] and 73 nM in data set [9]. Besides, the cytotoxicity at 10 µM in data set [6] was 0%. Also, the inhibition at 50 µM in the data set on Trypanosoma brucei [1] came out at 40%.
With `C/C(=N\NC(N)=S)c1cc2ccc(C)cc2oc1=O`, the values for the inhibition (in [2]; in the data set on Trypanosoma brucei [3]) were 98% and 97%, respectively. In addition, the Ratio IC50 amounted to 92 in the data set with Trypanosoma brucei [10] and 72 in data set [11]. For the same compound, in the data set with Trypanosoma cruzi [4], the inhibition at 10 µM worked out at 52%. In addition, in [5], the cytotoxicity at 48 h, 50 µM is 10%. Moreover, the midpoint of cytotoxicity in data set [7], the CC50 at 48 h, lay at 114 µM. Further, the IC50 on Cruzipain [8] is 200 nM; in [9] it was 22 nM. For the same compound, in [6], the cytotoxicity at 10 µM was 0%. The inhibition at 50 µM in the data set on Trypanosoma brucei [1] stood at 23%.
Turning to `O=C(c1cc2ccccc2oc1=O)N1CCN(c2ccccc2)CC1`, the inhibition came to 48% in data set [2] and 34% in the data set with Trypanosoma brucei [3]. The compound further had an inhibition at 10 µM in the data set with Trypanosoma cruzi [4] of 8%. Further, the cytotoxicity at 48 h, 50 µM in data set [5] was determined as 11%. Further, in data set [6], the cytotoxicity at 10 µM is 0%. Also, the inhibition at 50 µM in the data set on Trypanosoma brucei [1] was found to be 17%.
For the compound `O=C(NCCc1c[nH]c2ccccc12)c1cc2cc(Cl)cc(Cl)c2oc1=O`, the values for the inhibition (in data set [2]; with Trypanosoma brucei [3]) were 22% and 9%, respectively. The compound also had an inhibition at 10 µM with Trypanosoma cruzi [4] of 23%. Further, the cytotoxicity at 48 h, 50 µM in [5] is 17%. Moreover, in data set [6], the cytotoxicity at 10 µM worked out at 0%. Besides, the inhibition at 50 µM in the data set with Trypanosoma brucei [1] came out at 44%.
Consider `C/C(=N\NC(N)=S)c1cc2cc(Br)ccc2oc1=O`, for which the inhibition amounted to 92% in data set [2] and 87% in the data set with Trypanosoma brucei [3]. Besides, the selectivity ratio in [12] was roughly 1.2. For the same compound, at 10 µM the inhibition with Trypanosoma cruzi [4] was 57%. In addition, in data set [5], the cytotoxicity at 48 h, 50 µM is 13%. This compound also returned a CC50 at 48 h in [7] of 52.3 µM. Also, the IC50 at Cruzipain [8] is 145 nM; in data set [9], 698 nM. In addition, the cytotoxicity at 10 µM in data set [6] turned out to be 12%. The inhibition at 50 µM with Trypanosoma brucei [1] was determined as 71%. The EC50 in the data set with Trypanosoma brucei [13] turned out to be 43.6 µM.
`COc1ccc2cc(C(=O)N3CCN(c4ccccc4)CC3)c(=O)oc2c1`: the inhibition was found to be 5% in [2] and 29% in the data set on Trypanosoma brucei [3]. In addition, the inhibition at 10 µM in the data set on Trypanosoma cruzi [4] is 27%. Moreover, the cytotoxicity at 48 h, 50 µM in data set [5] worked out at 11%. In addition, the cytotoxicity at 10 µM in data set [6] was 1%. The inhibition at 50 µM in the data set on Trypanosoma brucei [1] stood at 43%.
In the data set with Trypanosoma cruzi [4], `O=C(Cn1ccnc1[N+](=O)[O-])NCc1ccccc1` [BENZNIDAZOLE] yielded an inhibition at 10 µM of 77%. Moreover, in data set [6], the cytotoxicity at 10 µM stood at 0%.
In the case of `O=C(c1cc2cc(Cl)cc(Cl)c2oc1=O)N1CCN(c2ccccc2)CC1`, the inhibition turned out to be 6% in data set [2] and 12% with Trypanosoma brucei [3]. Besides, in the data set with Trypanosoma cruzi [4], 10 µM produced 25% inhibition. Also, the cytotoxicity at 48 h, 50 µM in data set [5] is 12%. Besides, in [6], the cytotoxicity at 10 µM worked out at 5%. Also, the inhibition at 50 µM in the data set on Trypanosoma brucei [1] was 24%.
With `CC(C)C[C@H](NC(=O)[C@H]1O[C@@H]1C(=O)O)C(=O)NCCCCN=C(N)N`, in the data set with Trypanosoma brucei [3], the inhibition turned out to be 99%.
In the case of `CC(C)C[C@H](NC(=O)[C@H](Cc1ccccc1)NC(=O)c1cnccn1)B(O)O` [BORTEZOMIB], the cytotoxicity at 48 h, 50 µM in data set [5] was 100%.
Turning to `O=C(Nc1ccccc1)c1cc2ccccc2oc1=O`, the inhibition in data set [2] stood at 9%; in the data set on Trypanosoma brucei [3], 17%. This compound yielded an inhibition at 10 µM in the data set on Trypanosoma cruzi [4] of 3%. Also, the cytotoxicity at 48 h, 50 µM in [5] amounted to 0%. In addition, the cytotoxicity at 10 µM in data set [6] was found to be 1%. Moreover, the inhibition at 50 µM in the data set with Trypanosoma brucei [1] is 52%.
As to `COc1ccc2cc(C(=O)NCCc3c[nH]c4ccccc34)c(=O)oc2c1`, the inhibition at 10 µM in the data set with Trypanosoma cruzi [4] came out at 27%. In addition, the cytotoxicity at 48 h, 50 µM in data set [5] came out at 81%. For the same compound, it took 32.1 µM to reach half-maximal cytotoxicity in data set [7] (CC50 at 48 h). Also, the cytotoxicity at 10 µM in data set [6] came to 0%. In addition, in the data set with Trypanosoma brucei [1], the inhibition at 50 µM is 59%.
Consider `O=C(NCc1ccccc1)c1cc2ccccc2oc1=O`, for which the inhibition turned out to be 1% in data set [2] and 7% with Trypanosoma brucei [3]. Moreover, the inhibition at 10 µM in the data set with Trypanosoma cruzi [4] came out at 6%. In addition, the cytotoxicity at 48 h, 50 µM in [5] was 3%. Besides, in data set [6], the cytotoxicity at 10 µM was determined as 10%. Further, the inhibition at 50 µM in the data set on Trypanosoma brucei [1] was 38%.
Regarding `O=C(NCCc1c[nH]c2ccccc12)c1cc2cc(I)ccc2oc1=O`, the figures for the inhibition (in data set [2]; with Trypanosoma brucei [3]) were 7% and 18%, respectively. Also, in the data set with Trypanosoma cruzi [4], the inhibition at 10 µM amounted to 7%. For the same compound, the cytotoxicity at 48 h, 50 µM in [5] was 41%. The cytotoxicity at 10 µM in data set [6] amounted to 1%. Further, the inhibition at 50 µM in the data set on Trypanosoma brucei [1] was 39%.
The compound `COc1ccc2cc(C(=O)NCc3ccccc3)c(=O)oc2c1` gave an inhibition at 10 µM in the data set on Trypanosoma cruzi [4] of 21%. The cytotoxicity at 48 h, 50 µM in data set [5] turned out to be 1%. In data set [6], the cytotoxicity at 10 µM amounted to 0%. Moreover, the inhibition at 50 µM with Trypanosoma brucei [1] is 45%.
With `COc1cc(OC)c2cc(C(=O)N3CCN(c4ccccc4)CC3)c(=O)oc2c1`, the results for the inhibition (in data set [2]; in the data set with Trypanosoma brucei [3]) were 3% and 24%, respectively. Further, in the data set with Trypanosoma cruzi [4], the inhibition at 10 µM stood at 2%. Besides, the cytotoxicity at 48 h, 50 µM in [5] was 18%. In data set [6], the cytotoxicity at 10 µM was 0%. Also, in the data set on Trypanosoma brucei [1], the inhibition at 50 µM is 15%.
For `COc1cccc2cc(/C(C)=N/NC(N)=S)c(=O)oc12`, the values for the IC50 (in data set [14]; against Cruzipain [16]) were 2000 nM and 14.4 µM, respectively. Further, the midpoint of the response with Trypanosoma cruzi [15], the EC50, lay at 5.5 µM.

Broadly, the inhibition is the drop in the measured response relative to a control, in per cent. A word on the CC50: it is the concentration at which the toxic effect on the cells reaches its halfway point. A low value points to harm at low concentration. A word on the IC50: it is the concentration needed to halve the response being measured. What is called EC50 is the concentration that produces a half-maximal response.
